We go through one molecule from patent US20220153704A1 (priority 2019, published 2022).

This series in a line: DVS characterization of hygroscopicity and stability under different humidity. The conditions noted are these: 25° C. Format: physicochemical. How it is done: The dynamic vapor sorption (DVS) graph was collected on DVS Intrinsic of SMS (Surface Measurement Systems). The relative humidity at 25° C. was corrected by the deliquescent point of LiCl, Mg(NO3)2 and KCl.
In order to evaluate the hygroscopicity and stability of anhydrous crystalline form E under different humidity conditions, DVS and XRPD tests were performed on crystalline form E samples at a constant temperature of 25° C.

For `CCN1C[C@]2(COC)CC[C@H](OC)[C@]34C5C[C@]6(O)[C@@H](OC)C[C@@](OC(C)=O)(C5[C@H]6OC(=O)c5ccc(OC)cc5)[C@H](C13)[C@H](OC)[C@H]24` (stereo partly drawn) [crystalline form E, (1α,6α,14α,16β)tetrahydro-8,13,14-triol-20-ethyl-1,6,16-trimethoxy-4-methoxymethyl-8-acetoxy-14-(4′-p-methoxybenzyl)-aconitane], the “crystalline form before and after the DVS test (XRPD)” value was “did not change”. Moreover, the “water adsorbed (DVS)” value (humidity 80% RH) is 0.12%. The hygroscopicity result (DVS, up to 80% RH) is “no hygroscopicity”.
